Here are results for 15 compounds from patent US20260042771A1, “HETEROCYCLIC COMPOUND FOR INDUCING DEGRADATION OF G12V MUTANT KRAS PROTEIN” (Astellas Pharma Inc., priority 2022, published 2026).

For test [1], the system named is human KRAS G12V mutant-positive pancreatic cancer line PA-TU-8902. Put plainly: Test Example 3: non-anchorage-dependent cell growth inhibition, spheroid 3D culture. Particulars: PaTu 8902, 144 h, PA-TU-8902 spheroid 3D culture, 6 days, CellTiter Glo 2.0. It is filed as cell-based. As for the experimental part:
Test Example 3: Evaluation of Non-Anchorage-Dependent Cell Growth Inhibitory Effect on Human KRAS G12V Mutant-Positive Pancreatic Cancer Line PA-TU-8902
The non-anchorage-dependent cell growth inhibitory effect of test compounds was evaluated by spheroid 3D cell culture.
PA-TU-8902 cells were seeded on low-cell-adhesive round bottom 384-well plates (PrimeSurface: from Sumitomo Bakelite) at 36 µL/well to give 5×10^2 cells per well. The cell culture was performed under the same conditions as in Test Example 1.
The next day, the test compounds (8 to 10 points having final concentrations in the range of 3 μM to 0.1 nM) and DMSO, which was the solvent for the test compounds, as a negative control were diluted 100-fold with a fresh medium and were added at 4 μL per well. After culturing in the presence of 5% CO2 at 37° C. for 6 days, CellTiter Glo 2.0 (from Promega) was added at 20 μL per well. After stirring with a plate mixer (from FINEPCR) at normal temperature for 1 hour, the luminescent signals were measured with ARVO X3 (from PerkinElmer).
With the signaling value in treatment with DMSO taken as 0% inhibition and with the signaling value in the medium alone without cells taken as 100% inhibition, the 50% inhibitory concentration values (IC50) were calculated by Sigmoid-Emax nonlinear regression analysis. The inhibition rate at 30 nM was calculated for Example No. 17.
A general note: In ATP-based viability assays light output follows the ATP content of the culture.

The next test deals with T1, RAS G12V (Homo sapiens, UniProt P01116, G12V).
T1 construct: host or cells: PA-TU-8902 human pancreatic cancer cells
T1 sequence (P01116 1-188 isoform P01116-2 G12V): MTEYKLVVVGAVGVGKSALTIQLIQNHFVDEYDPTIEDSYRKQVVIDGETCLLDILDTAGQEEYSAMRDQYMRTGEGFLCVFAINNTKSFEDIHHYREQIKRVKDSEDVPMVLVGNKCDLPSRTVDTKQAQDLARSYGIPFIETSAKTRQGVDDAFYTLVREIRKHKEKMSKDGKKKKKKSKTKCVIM
Description: Test Example 1: RAS G12V degradation activity by Cell ELISA in PA-TU-8902. It is filed as cell-based. Particulars: for DC50: 50% degradation concentration of RAS G12V, PA-TU-8902 cells, 24 hours, Cell ELISA, corrected with β-actin; for Dmax: PaTu 8902, degradation rate at the most active concentration, DMSO = 0%, Example No. 7 at 3 μM = 100%, PA-TU-8902, 24 hours. As for the experimental part: Test Example 1: Evaluation of RAS G12V Degradation Activity on Human KRAS G12V Mutant-Positive Pancreatic Cancer Line PA-TU-8902
The RAS G12V degradation activity of test compounds was evaluated by measuring the expression levels of RAS G12V by Cell ELISA.
PA-TU-8902 cells (DSMZ, ACC 179) were seeded at 36 μL per well on 384-well plates (from Greiner bio-one) to give 1.5×10^4 cells per well. As for the cell culture conditions, DMEM medium (from Sigma-Aldrich) containing 10% fetal bovine serum (from Cytiva) was used in the presence of 5% CO2 at 37° C.
The next day, the test compounds (10 points having final concentrations in the range of 3 μM to 0.1 nM), the compound of Example No. 7 having a final concentration of 3 μM as a positive control and dimethyl sulfoxide (DMSO), which was the solvent for the test compounds, as a negative control were diluted 100-fold with a fresh medium and were added at 4 μL per well. The cells were cultured for 24 hours.
The next day, the culture supernatant was removed, and 4% paraformaldehyde phosphate buffer (from FUJIFILM Wako Pure Chemical Corporation) was added at 20 μL per well. The plates were allowed to stand for 30 minutes at room temperature to thus immobilize the cells. Then, the supernatant was removed, and 0.1% Triton X-100 (from Amersham Biosciences)-containing Phosphate buffered saline (PBS) was added at 20 μL per well. After allowing to stand at room temperature for 10 minutes, the supernatant was removed. PBS was added at 25 μL per well, and the supernatant was removed to thus wash each well. The washing was performed twice in total. Subsequent washing operations were performed in the same manner. Next, the supernatant was removed, and 0.5% sodium dodecyl sulfate (SDS; from ThermoFisher Scientific)-containing PBS was added at 20 μL per well. After allowing to stand at room temperature for 10 minutes, the supernatant was removed by centrifugation of the plates. After washing with PBS, the supernatant was removed by centrifugation, and blocking solution (PVDF Blocking Reagent for Can Get Signal [from TOYOBO Co., Ltd.]) was added at 20 μL per well. After allowing to stand for 30 minutes at room temperature, the supernatant was removed by centrifugation and a solution obtained by diluting, as primary antibodies, anti-Ras (G12V Mutant Specific) antibody (Ras (G12V Mutant Specific) (D2H12) Rabbit mAb; from Cell Signaling Technology; 500-fold diluted) and […] (Anti-beta Actin antibody; from Abcam; 5,000-fold diluted) with Can Get Signal Solution 2 (from TOYOBO Co., Ltd.) was added at 15 μL per well. The plates were allowed to stand overnight at 4° C.
The next day, the supernatant was removed by centrifugation and washed with PBS. The supernatant was removed by centrifugation, a solution obtained by diluting, as secondary antibodies, anti-rabbit IgG antibody (IRDye 800CW Goat anti-Rabbit IgG; from LI-COR Biosciences) and anti-mouse IgG antibody (IRDye 680RD Donkey anti-Mouse IgG; from LI-COR Biosciences) 1,000-fold with Can Get Signal Solution 2 was added at 15 μL per well. After allowing to stand at room temperature for 1 hour, the supernatant was removed by centrifugation and washed with PBS. After removing the supernatant, the plates were dried with air at room temperature for 2 hours or more, and the 700 nm and 800 nm fluorescent signals were measured with Aerius (from LI-COR Biosciences).
The degradation rate of RAS G12V was calculated with the RAS G12V signaling value at the time of addition of DMSO taken as 0%, which was corrected with the signaling value of β-actin, and with the RAS G12V signaling value at the time of addition of the compound of Example No. 7 at a final concentration of 3 μM taken as 100%. […]
(ELISA stands for enzyme-linked immunosorbent assay.)

For orientation: IC50 means the concentration at which inhibition is half-maximal. A higher IC50 goes with weaker potency. Usually DC50 stands for the concentration giving 50% degradation. Read a high DC50 as degradation only at high concentration. As usually defined, the Dmax is the greatest extent of degradation seen. For the compound `CO[C@@H](C)COc1nc(N2CC[C@H]2C(N)=O)c2cc(C3CC3)c(-c3c(C)c(F)cc4[nH]ncc34)c(OCc3ccc(C(=O)N4CCN(Cc5ccc6c(N7CCC(=O)NC7=O)nn(C)c6c5)C[C@@H]4C)cc3)c2n1` (atropisomer, axis not shown) [Example 5, (2S)-1-((7 M)-6-cyclopropyl-8-((4-[(2S)-4-{[3-(2,4-dioxo-1,3-diazinan-1-yl)-1-methyl-1H-indazol-6-yl]methyl)-2-methylpiperazine-1-carbonyl]phenyl)methoxy)-7-(6-fluoro-5-methyl-1H-indazol-4-yl)-2-[(2S)-2-methoxypropoxy]quinazolin-4-yl}azetidine-2-carboxyamide], the concentration for half-maximal inhibition (IC50) in test [1] was determined as 15 nM. In addition, on RAS G12V, half-maximal degradation (DC50) was put at 5 nM and the Dmax was found to be 97%.
On the same counts, the results for `Cc1c(F)cc2[nH]ncc2c1-c1c(C2CC2)cc2c(N3CC[C@H]3C(N)=O)nc(OC[C@@H]3CCN(C)C3)nc2c1OCc1ccc(C(=O)N2CCN(Cc3ccc4c(N5CCC(=O)NC5=O)nn(C)c4c3)C[C@@H]2C)cc1` (atropisomer, axis not shown) [Example 7] are 55 nM, 38 nM and 103%.
The corresponding values for `Cc1c(F)cc2[nH]ncc2c1-c1c(C2CC2)cc2c(N3CCOCC3)nc(OCC(C)(C)CN(C)C)nc2c1OCc1ccc(C(=O)N2CCN(Cc3ccc4c(c3)n(C)c(=O)n4N3CCC(=O)NC3=O)C[C@@H]2C)cc1` (atropisomer, axis not shown) [Example 9] are 47 nM, 6 nM and 88%.
On the same counts, the results for `Cc1c(F)cc2[nH]ncc2c1-c1c(C2CC2)cc2c(N3CC(C#N)C3)nc(OCC(C)(C)CN(C)C)nc2c1OCc1ccc(C(=O)N2CCN(Cc3ccc4c(c3)n(C)c(=O)n4N3CCC(=O)NC3=O)C[C@@H]2C)cc1` (atropisomer, axis not shown) [Example 10] are 22 nM, 6 nM and 88%.
Compound `Cc1c(F)cc2[nH]ncc2c1-c1c(C2CC2)cc2c(N3CC(C#N)C3)nc(OCC(C)(C)CN(C)C)nc2c1OCc1ccc(C(=O)N2CCN(Cc3ccc4c(N5CCC(=O)NC5=O)nn(C)c4c3)C[C@@H]2C)cc1` (atropisomer, axis not shown) [Example 11] returned an IC50 in test [1] of 18 nM. On RAS G12V, the DC50 was found to be 11 nM and the Dmax came out at 88%.
On the same counts, the results for `CO[C@@H](C)COc1nc(N2CC(C#N)C2)c2cc(C3CC3)c(-c3c(C)c(F)cc4[nH]ncc34)c(OCc3ccc(C(=O)N4CCN(Cc5ccc6c(N7CCC(=O)NC7=O)nn(C)c6c5)CC4)cc3)c2n1` (atropisomer, axis not shown) [Example 12] are 33 nM, 13 nM and 87%.
The compound `CO[C@@H](C)COc1nc(N2CC(C#N)C2)c2cc(C3CC3)c(-c3c(C)c(F)cc4[nH]ncc34)c(OCc3ccc(C(=O)N4CCC5(CN(Cc6ccc7c(N8CCC(=O)NC8=O)nn(C)c7c6)C5)C4)cc3)c2n1` (atropisomer, axis not shown) [Example 13] had an IC50 in test [1] of 55 nM. In addition, at RAS G12V, the DC50 was found to be 27 nM and the Dmax came to 104%.
`CO[C@@H](C)COc1nc(N2CC(C#N)C2)c2cc(C3CC3)c(-c3c(C)c(F)cc4[nH]ncc34)c(OCc3ccc(C(=O)N4CCN(Cc5ccc6c(N7CCC(=O)NC7=O)nn(C)c6c5)C[C@@H]4C)cc3)c2n1` (atropisomer, axis not shown) [Example 14] had an IC50 in test [1] of 12 nM. Also, at RAS G12V, the DC50 was found to be 4 nM and the Dmax amounted to 100%.
The corresponding values for `CO[C@@H](C)COc1nc(N2CC(C#N)C2)c2cc(C3CC3)c(-c3c(C)c(F)cc4[nH]ncc34)c(OCc3ccc(C(=O)N4CC[C@H](CN(C)Cc5ccc6c(N7CCC(=O)NC7=O)nn(C)c6c5)C4)cc3)c2n1` (atropisomer, axis not shown) [Example 15] are 139 nM, 92 nM and 85%.
On the same counts, the results for `CO[C@@H](C)COc1nc(N2CC(C#N)C2)c2cc(C3CC3)c(-c3c(C)c(F)cc4[nH]ncc34)c(OCc3ccc(C(=O)N4CC5(CN(Cc6ccc7c(N8CCC(=O)NC8=O)nn(C)c7c6)C5)C4)cc3)c2n1` (atropisomer, axis not shown) [Example 16] are 255 nM, 162 nM and 95%.
On the same counts, the results for `CO[C@@H](C)COc1cc(OC2CN(C(=O)NCCN(C)C)C2)c2cc(C3CC3)c(-c3c(C)c(F)cc4[nH]ncc34)c(OCc3ccc(C(=O)N4CCN(Cc5ccc6c(N7CCC(=O)NC7=O)nn(C)c6c5)C[C@@H]4C)cc3)c2n1` (atropisomer, axis not shown) [Example 18] are 149 nM, 65 nM and 78%.
Compound `CO[C@@H](C)COc1nc(N2CC[C@H]2C(N)=O)c2cc(C3CC3)c(-c3c(C)c(F)cc4[nH]ncc34)c(OCc3ccc(CN4CCN(Cc5ccc6c(N7CCC(=O)NC7=O)nn(C)c6c5)C[C@@H]4C)cc3)c2n1` (atropisomer, axis not shown) [Example 19] returned an IC50 in test [1] of 68 nM. In addition, on RAS G12V, the DC50 was determined as 26 nM and the Dmax amounted to 78%.
The corresponding values for `CO[C@@H](C)COc1nc(N2CC[C@H]2C(N)=O)c2cc(C3CC3)c(-c3c(C)c(F)cc4[nH]ncc34)c(OCc3ccc(CN4CCN(Cc5ccc6c(N7CCC(=O)NC7=O)nn(C)c6c5)CC4=O)cc3)c2n1` (atropisomer, axis not shown) [Example 20, (2S)-1-{(7 M)-6-cyclopropyl-8-({4-[(4-{[3-(2,4-dioxo-1,3-diazinan-1-yl)-1-methyl-1H-indazol-6-yl]methyl)-2-oxopiperazin-1-yl)methyl]phenyl}methoxy)-7-(6-fluoro-5-methyl-1H-indazol-4-yl)-2-[(2S)-2-methoxypropoxy]quinazolin-4-yl)azetidine-2-carboxyamide] are 85 nM, 29 nM and 85%.
In turn, `Cc1c(F)cc2[nH]ncc2c1-c1c(C2CC2)cc2c(N3CC(C#N)C3)nc(OC3CCOCC3)nc2c1OCc1ccc(C(=O)N2CCN(Cc3ccc4c(N5CCC(=O)NC5=O)nn(C)c4c3)C[C@@H]2C)cc1` (atropisomer, axis not shown) [Example 21] returned an IC50 in test [1] of 11 nM.
Still for that read-out and setting: to `CO[C@@H](C)COc1nc(N2CC(C#N)C2)c2cc(C3CC3)c(-c3c(C)c(F)cc4[nH]ncc34)c(OCc3ccc(C(=O)N4CCC5(CCN(CCOc6cccc(N7CCC(=O)NC7=O)c6)CC5)CC4)cc3)c2n1` (atropisomer, axis not shown) [Example 22] belongs 5 nM.
